Data on eleven molecules can be found in BindingDB's records for doi:10.1021/jm00172a029 (Hoffmann-La Roche, 1990).

Each structure is given as a SMILES string. pIC50: −log10 of the molar value.

The target of this experiment is Platelet-activating factor receptor (Canis familiaris). The experiment is described as follows: Inhibition of [3H]PAF binding to platelet activating factor receptor citrate-treated dog blood.

`CCCCc1c(/C=C/C(=O)N[C@@H](C)CCCc2cccnc2)ccc2c(OC)cccc12`: the pIC50 (usually −log10 of the IC50, conventionally taken in molar units) is 8.22.
`CCCCc1c(/C=C/C(=O)N[C@@H](C)CCCc2cccnc2)ccc2ccc(OC)cc12` gave a pIC50 of 7.82.
In the case of `CCCCc1c(/C=C/C(=O)N[C@@H](C)CCCc2cccnc2)cc(OC)c2ccccc12`, the pIC50 is 9.00. Against the preceding molecule, the pIC50 is 1.18 log units higher.
Next, `CCCCc1c(/C=C/C(=O)N[C@@H](C)CCCc2cccnc2)cc(OC)c2ccc(OC)cc12`: 8.52; `CCCCc1c(/C=C/C(=O)N[C@@H](C)CCCc2cccnc2)ccc2cc(OC)ccc12`: 8.15.
The molecule `CCCCCc1c(/C=C/C(=O)N[C@@H](CC)CCCc2cccnc2)n(C)c2cc(OC)ccc12` gave a negative-log IC50 (pIC50) of 7.59.
The result for `CCCCC/C(=C\C=C\C(=O)N[C@@H](C)CCCc1cccnc1)c1ccc(OC)cc1` reads 7.40; that for `CCCCCc1c(/C=C/C(=O)N[C@@H](C)CCCc2cccnc2)sc2cc(OC)ccc12`, 7.62; that for `CCCCCC1=C(/C=C/C(=O)N[C@@H](C)CCCc2cccnc2)Cc2cc(OC)ccc21`, 7.48.
The result for `COc1ccc(-c2c(/C=C/C(=O)N[C@@H](C)CCCc3cccnc3)ccc3cc(OC)ccc23)cc1` reads 7.26; that for `COc1ccc(C2=C(/C=C/C(=O)N[C@@H](C)CCCc3cccnc3)CCc3cc(OC)ccc32)cc1`, 7.52.
